# Measured values as given in US20140004243A1, “SALTY TASTE ENHANCER” (AJINOMOTO CO., INC., priority 2011, published 2014).
# Tested on: human
# Assay: Sensory evaluation of salty taste enhancing activity of capsazepine in human
# Format: in vivo
# Conditions: for strength of salty taste middle and after taste: after 2 seconds; for strength of salty taste middle and after taste / strength of salty taste initial taste: relative to control; for strength of salty taste initial taste: first 2 seconds
# Description: The presence or absence of a salty taste enhancing activity in human was examined by a quantitative sensory evaluation test for capsazepine having an ENaC activation to action.
# The quantitative sensory evaluation test was performed as follows. Distilled water containing sodium chloride (0.8 g/dl) was mixed with capsazepine as a sample at 0.0001 to 0.001 g/dl, and the level of a salty taste enhancing activity was measured. Distilled water containing 0.8 g/dl of sodium chloride was used as a control, and distilled water containing 0.9 g/dl or 1.0 g/dl of sodium chloride was used as a comparison target. Using a linear measurement method, a straight line showing 1.0-fold (0.8 g/dl), 1.13-fold (0.9 g/dl), 1.25-fold (1.0 g/dl) positions of sodium chloride concentration was drawn and the position showing the strength of the corresponding salty taste was put down thereon. As for the sensory evaluation, an average of the positions put down by the panelists was determined, and an increase in the level of salty taste relative to the level of salty taste in the control was indicated as a salty taste enhancing rate (fold). […] The “initial taste” means the evaluation of the strength of the salty taste for 2 seconds after placing in the mouth, and the “middle and after taste” means a combination of middle taste and after taste, which is the evaluation of the strength of the salty taste after 2 seconds from placing in the mouth.
# [1] = sample 0.0001 g/dl in 0.8 g/dl sodium chloride
# [2] = sample 0.0005 g/dl in 0.8 g/dl sodium chloride
# [3] = sample 0.001 g/dl in 0.8 g/dl sodium chloride
smiles,measurement,setting,value
Oc1cc2c(cc1O)CN(C(=S)NCCc1ccc(Cl)cc1)CCC2 [capsazepine],strength of salty taste middle and after taste,[1],1.05 fold
same,strength of salty taste initial taste,[1],1.04 fold
same,strength of salty taste middle and after taste,[2],1.08 fold
same,strength of salty taste initial taste,[2],1.11 fold
same,strength of salty taste middle and after taste,[3],1.11 fold
same,strength of salty taste initial taste,[3],1.11 fold
same,salty taste enhancing activity in human,summary in words of Table 3,has a salty taste enhancing activity in human
